Source: US11066393B2, “Indolin-2-one derivatives” (Hoffmann-La Roche Inc., priority 2015, dated 2021)

Target: T1, mouse ENT-1 transporter (Mus musculus, UniProt Q9JIM1)
T1 construct: expressed in transfected cells
T1 sequence (Q9JIM1 1-460): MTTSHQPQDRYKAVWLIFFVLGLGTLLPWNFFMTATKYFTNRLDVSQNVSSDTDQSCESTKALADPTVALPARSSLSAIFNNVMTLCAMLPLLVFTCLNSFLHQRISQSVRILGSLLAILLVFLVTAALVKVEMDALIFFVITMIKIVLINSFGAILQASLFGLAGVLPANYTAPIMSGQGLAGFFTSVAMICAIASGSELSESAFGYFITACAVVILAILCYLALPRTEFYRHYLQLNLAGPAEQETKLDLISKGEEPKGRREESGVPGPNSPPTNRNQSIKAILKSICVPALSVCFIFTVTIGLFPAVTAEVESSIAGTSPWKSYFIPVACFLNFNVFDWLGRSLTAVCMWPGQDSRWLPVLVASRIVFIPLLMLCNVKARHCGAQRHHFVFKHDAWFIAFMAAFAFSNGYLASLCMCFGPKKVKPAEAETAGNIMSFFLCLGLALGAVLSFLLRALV
Assay: Adenosine transport activity (ENT1, [3H]-adenosine uptake)
Format: cell-based
Conditions: stable cells expressing mouse ENT-1; [2,8-3H]-adenosine 6 nM, 20 min
Procedure: To measure adenosine transport activity of ENT-1 mammalian cells, stable cells expressing the mouse ENT-1 transporter were plated on day 1 in 96-well culture plates at the density of 60,000 cells/well, in complete DMEM/F12 medium supplemented with glutamax, 10% FBS and 10 μg/ml puromycin. On day 2, the medium was aspirated and the cells were washed twice with uptake buffer (10 mM Hepes-Tris, pH 7.4 containing 150 mM NaCl, 1 mM CaCl2, 2.5 mM KCl, 2.5 mM MgSO4, 10 mM D-glucose) (UB). For inhibition experiments, cells were then incubated at RT with various concentrations of compounds with 1% DMSO final. Non-specific uptake was defined in the presence of 10 μM S-(4-Nitrobenzyl)-6-thioinosine (NBTI, Sigma Cat #N2255).
A solution containing [2,8-^3H]-adenosine 6 nM (40 Ci/mmol, American Radiolabeled chemicals Inc, Cat #ART 0287A) was then immediately added to the wells. The plates were then incubated for 20 min with gentle shaking and the reaction was stopped by aspiration of the mixture and washing (three times) with ice-cold UB. The cells were lysed by the addition of scintillation liquid, shaken 3 hours and the radioactivity in the cells was estimated using a microplates scintillation counter (TopCount NXT, Packard).

Row | Compound | IC50
1 | 5-(3,3-Dimethyl-6-(2-methylpyrimidin-5-yl)-2-oxoindolin-1-yl)-N,2-dimethylnicotinamide [Example 41] | 413 nM
2 | Cc1ncc(-c2ccc3c(c2)N(c2cncc(C(=O)N(C)CC(F)(F)F)n2)C(=O)C3(C)C)cn1 [Example 4, 6-(3,3-Dimethyl-6-(2-methylpyrimidin-5-yl)-2-oxoindolin-1-yl)-N-methyl-N-(2,2,2-trifluoroethyl)pyrazine-2-carboxamide] | 513 nM
3 | COCCN(C)C(=O)c1cncc(N2C(=O)C(C)(C)c3ccc(-c4cnc(C)nc4)cc32)n1 [Example 5, 6-(3,3-Dimethyl-6-(2-methylpyrimidin-5-yl)-2-oxoindolin-1-yl)-N-(2-methoxyethyl)-N-methylpyrazine-2-carboxamide] | 382 nM
4 | Cc1ncc(-c2ccc3c(c2)N(c2cncc(C(=O)NCC(F)(F)F)n2)C(=O)C3(C)C)cn1 [Example 8, 6-(3,3-Dimethyl-6-(2-methylpyrimidin-5-yl)-2-oxoindolin-1-yl)-N-(2,2,2-trifluoroethyl)pyrazine-2-carboxamide] | 451 nM
5 | Cc1ncc(-c2ccc3c(c2)N(c2cnc(C(=O)N(C)C(C)(C)C)cn2)C(=O)C3(C)C)cn1 [Example 12, N-(tert-Butyl)-5-(3,3-dimethyl-6-(2-methylpyrimidin-5-yl)-2-oxoindolin-1-yl)-N-methylpyrazine-2-carboxamide] | 927 nM
6 | Cc1ncc(-c2ccc3c(c2)N(c2cnc(C(=O)N4CCC4)cn2)C(=O)C3(C)C)cn1 [Example 13, 1-(5-(Azetidine-1-carbonyl)pyrazin-2-yl)-3,3-dimethyl-6-(2-methylpyrimidin-5-yl)indolin-2-one] | 767 nM
7 | Cc1ncc(-c2ccc3c(c2)N(c2cnc(C(N)=O)cn2)C(=O)C3(C)C)cn1 [Example 15, 5-(3,3-Dimethyl-6-(2-methylpyrimidin-5-yl)-2-oxoindolin-1-yl)pyrazine-2-carboxamide] | 391 nM
8 | Cc1ncc(-c2ccc3c(c2)N(c2nccc(C(=O)N(C)C)n2)C(=O)C3(C)C)cn1 [Example 17, 2-(3,3-Dimethyl-6-(2-methylpyrimidin-5-yl)-2-oxoindolin-1-yl)-N,N-dimethylpyrimidine-4-carboxamide] | 537 nM
9 | Cc1ncc(-c2ccc3c(c2)N(c2ccnc(C(=O)N(C)C)n2)C(=O)C3(C)C)cn1 [Example 19, 4-(3,3-Dimethyl-6-(2-methylpyrimidin-5-yl)-2-oxoindolin-1-yl)-N,N-dimethylpyrimidine-2-carboxamide] | 725 nM
10 | Cc1ncc(-c2ccc3c(c2)N(c2ccc(C(=O)N(C)C)nn2)C(=O)C3(C)C)cn1 [Example 21, 6-(3,3-Dimethyl-6-(2-methylpyrimidin-5-yl)-2-oxoindolin-1-yl)-N,N-dimethylpyridazine-3-carboxamide] | 964 nM
11 | Cc1ncc(-c2ccc3c(c2)N(c2cccc(C(=O)N(C)C)n2)C(=O)C3(C)C)cn1 [Example 23, 6-(3,3-Dimethyl-6-(2-methylpyrimidin-5-yl)-2-oxoindolin-1-yl)-N,N-dimethylpicolinamide] | 374 nM
12 | Cc1ncc(-c2ccc3c(c2)N(c2cncc(C(=O)N(C)C)c2)C(=O)C3(C)C)cn1 [Example 30, 5-(3,3-Dimethyl-6-(2-methylpyrimidin-5-yl)-2-oxoindolin-1-yl)-N,N-dimethylnicotinamide] | 608 nM
13 | Cc1ncc(-c2ccc3c(c2)N(c2cncc(C(=O)NCC(F)(F)F)c2)C(=O)C3(C)C)cn1 [Example 32, 5-(3,3-Dimethyl-6-(2-methylpyrimidin-5-yl)-2-oxoindolin-1-yl)-N-(2,2,2-trifluoroethyl)nicotinamide] | 477 nM
14 | CNC(=O)c1cncc(N2C(=O)C(C)(C)c3ccc(-c4cnc(C)nc4)cc32)c1 [Example 33, 5-(3,3-Dimethyl-6-(2-methylpyrimidin-5-yl)-2-oxoindolin-1-yl)-N-methylnicotinamide] | 559 nM
15 | CNC(=O)c1cc(N2C(=O)C(C)(C)c3ccc(-c4cnc(C)nc4)cc32)cc(C)n1 [Example 34, 4-(3,3-Dimethyl-6-(2-methylpyrimidin-5-yl)-2-oxoindolin-1-yl)-N,6-dimethylpicolinamide] | 1140 nM
16 | CNC(=O)c1cc(N2C(=O)C(C)(C)c3ccc(-c4cnc(C)nc4)cc32)ccn1 [Example 35, 4-(3,3-Dimethyl-6-(2-methylpyrimidin-5-yl)-2-oxoindolin-1-yl)-N-methylpicolinamide] | 534 nM
17 | Cc1ncc(-c2ccc3c(c2)N(c2cnc4c(c2)C(=O)N(C)C4)C(=O)C3(C)C)cn1 [Example 36, 3-(3,3-Dimethyl-6-(2-methylpyrimidin-5-yl)-2-oxoindolin-1-yl)-6-methyl-6,7-dihydro-5H-pyrrolo[3,4-b]pyridin-5-one] | 637 nM
18 | Cc1ncc(-c2ccc3c(c2)N(c2ccc4c(c2)C(=O)N(C)C4)C(=O)C3(C)C)cn1 [Example 37, 3,3-Dimethyl-1-(2-methyl-3-oxoisoindolin-5-yl)-6-(2-methylpyrimidin-5-yl)indolin-2-one] | 668 nM

These reach a lower IC50. Values come first.

Row | IC50 | Compound
19 | 19.5 nM | Cc1ncc(-c2ccc3c(c2)N(c2cncc(C(=O)N(C)C)n2)C(=O)C3(C)C)cn1 [Example 1, 6-(3,3-Dimethyl-6-(2-methylpyrimidin-5-yl)-2-oxoindolin-1-yl)-N,N-dimethylpyrazine-2-carboxamide]
20 | 31.4 nM | Cc1ncc(-c2ccc3c(c2)N(c2cncc(C(=O)N4CCC4)n2)C(=O)C3(C)C)cn1 [Example 3, 1-(6-(Azetidine-1-carbonyl)pyrazin-2-yl)-3,3-dimethyl-6-(2-methylpyrimidin-5-yl)indolin-2-one]
21 | 30 nM | Cc1ncc(-c2ccc3c(c2)N(c2cncc(C(=O)NCCO)n2)C(=O)C3(C)C)cn1 [Example 6, 6-(3,3-Dimethyl-6-(2-methylpyrimidin-5-yl)-2-oxoindolin-1-yl)-N-(2-hydroxyethyl)pyrazine-2-carboxamide]
22 | 196 nM | Cc1ncc(-c2ccc3c(c2)N(c2cncc(C(=O)NC(C)C)n2)C(=O)C3(C)C)cn1 [Example 9, 6-(3,3-Dimethyl-6-(2-methylpyrimidin-5-yl)-2-oxoindolin-1-yl)-N-isopropylpyrazine-2-carboxamide]
23 | 197 nM | Cc1ncc(-c2ccc3c(c2)N(c2cncc(C(N)=O)n2)C(=O)C3(C)C)cn1 [Example 10, 6-(3,3-Dimethyl-6-(2-methylpyrimidin-5-yl)-2-oxoindolin-1-yl)pyrazine-2-carboxamide]
24 | 186 nM | COCCN(C)C(=O)c1cnc(N2C(=O)C(C)(C)c3ccc(-c4cnc(C)nc4)cc32)cn1 [Example 14, 5-(3,3-Dimethyl-6-(2-methylpyrimidin-5-yl)-2-oxoindolin-1-yl)-N-(2-methoxyethyl)-N-methylpyrazine-2-carboxamide]
25 | 78.4 nM | CNC(=O)c1nc(N2C(=O)C(C)(C)c3ccc(-c4cnc(C)nc4)cc32)ncc1C [Example 18, 2-(3,3-Dimethyl-6-(2-methylpyrimidin-5-yl)-2-oxoindolin-1-yl)-N,5-dimethylpyrimidine-4-carboxamide]
26 | 120 nM | CNC(=O)c1nccc(N2C(=O)C(C)(C)c3ccc(-c4cnc(C)nc4)cc32)n1 [Example 20, 4-(3,3-Dimethyl-6-(2-methylpyrimidin-5-yl)-2-oxoindolin-1-yl)-N-methylpyrimidine-2-carboxamide]
27 | 49.9 nM | Cc1ncc(-c2ccc3c(c2)N(c2cccc(C(=O)NCC4CC4)n2)C(=O)C3(C)C)cn1 [Example 25, N-(Cyclopropylmethyl)-6-(3,3-dimethyl-6-(2-methylpyrimidin-5-yl)-2-oxoindolin-1-yl)picolinamide]
28 | 253 nM | Cc1ncc(-c2ccc3c(c2)N(c2cccc(C(N)=O)n2)C(=O)C3(C)C)cn1 [Example 26, 6-(3,3-Dimethyl-6-(2-methylpyrimidin-5-yl)-2-oxoindolin-1-yl)picolinamide]
29 | 14.8 nM | CNC(=O)c1nc(N2C(=O)C(C)(C)c3ccc(-c4cnc(C)nc4)cc32)ccc1C [Example 27, 6-(3,3-Dimethyl-6-(2-methylpyrimidin-5-yl)-2-oxoindolin-1-yl)-N,3-dimethylpicolinamide]
30 | 351 nM | Cc1ncc(-c2ccc3c(c2)N(c2ccc(C)c(C(=O)N(C)C)n2)C(=O)C3(C)C)cn1 [Example 28, 6-(3,3-Dimethyl-6-(2-methylpyrimidin-5-yl)-2-oxoindolin-1-yl)-N,N,3-trimethylpicolinamide]
31 | 202 nM | Cc1ncc(-c2ccc3c(c2)N(c2cncc(C(=O)N4CCC4)c2)C(=O)C3(C)C)cn1 [Example 31, 1-(5-(Azetidine-1-carbonyl)pyridin-3-yl)-3,3-dimethyl-6-(2-methylpyrimidin-5-yl)indolin-2-one]
